Laboratory results: patent US20220325235A1, “CELL CULTURE METHODS” (The University of Massachusetts, priority 2019, published 2022)
Entries after “also recorded” stand apart in the source; their conditions may differ.

Legend:
CHO-K1 cell line = assay: Fed-batch spiking test: IgG glycan profile by HPLC with Glycan Column; format: cell-based, Chinese hamster
Description: Industrial standard Fed-batch process: CHO-K1 cell line is cultured in corresponding media. Feed for 14 days, with 6 mM glutamine supplement on the inoculation day. The working volume is 30 mL in 125 mL shake flasks, and the inoculation cell density is 0.5 million cells/mL. The parameters for the shaking incubator are: 125 RPM, and 5% CO2. The feeding strategy is 10% corresponding feed everyday starting from day 3 to day 13.
In the standard industrial fed-batch process, cells were exposed to the inhibitors for a long period of time. This experiment mimics the therapeutic antibody production process, and spikes the inhibitors at their end-of-culture cellular concentration. ICA was confirmed as a known inhibitor and was used as a positive inhibitor control. Mixture condition excluded ICA and included AA, HICA, CMP, MSA, TRI, NAP. The process lasted for 14 days, and starting from day 6, the cell density under the inhibitor conditions were lower than the negative control batch.
IgG titer was measured by HPLC with a Protein A column. Product quality was quantified by the IgG glycan profile, which was measured by HPLC with a Glycan Column.

CHO cells = assay: Batch culture spiking of metabolites at end-of-culture concentration: cell density; format: cell-based, Chinese hamster; settings: 6 days, spiked at end-of-culture concentration
Description: CHO K-1 industrial standard batch process: NIH CHO-K1 cell line is cultured for 6 days, with 6 mM glutamine supplement on the inoculation day. The working volume is 30 mL in 125 mL shake flasks, and the inoculation cell density is 0.5 million cells/mL. The parameters for the shaking incubator are: 125 RPM, and 5% CO2.
Cells were exposed to the identified inhibitory metabolites of Table 1 at their end-of-culture concentration for 6 days in batch culture. […] All of the inhibitory metabolites decreased the antibody productivity (FIG. 4).

Row | Compound | Impact on G1F formation compared to control group (CHO-K1 cell line) | Impact on G2F formation compared to control group (CHO-K1 cell line; Day 14) | Cell density compared with the control group (CHO cells)
1 | O=C(O)C=C(CC(=O)O)C(=O)O [AA, aconitic acid] | higher impact | totally inhibits; also recorded: G2F was not formed | lower cell density
2 | Nc1ccn([C@@H]2O[C@H](COP(=O)(O)O)[C@@H](O)[C@H]2O)c(=O)n1 [CMP, cytidine monophosphate] | higher impact |  | lower cell density
3 | CC(C)CC(O)C(=O)O (stereo not drawn) [HICA, leucinic acid] | higher impact |  | 
4 | O=C(O)c1c[nH]c2ccccc12 [ICA, indole-3-carboxylic acid, reference compound] | higher impact |  | lower cell density
5 | CC(CC(=O)O)C(=O)O (stereo not drawn) [MSA, methylsuccinic acid] | higher impact |  | 
